From patent US11660280B2, “Treatment of drug resistant gliomas” (OKLAHOMA MEDICAL RESEARCH FOUNDATION, priority 2017, dated 2023)

Columns and labels:
[1] = system: LBP (lipopolysaccharide binding protein); assay: LBP ELISA in tumor tissue and serum of F98 glioma-bearing rats; assay type: in vivo, rat
Source text: The inventor also discovered a potential biomarker, LBP (lipopolysaccharide binding protein), that is elevated in tumors of rat F98 glioma-bearing rats (assessed by ELISA), and in GBM human tissue samples (assessed by immunohistochemistry). […] The inventor used an ELISA kit for LBP to assess this biomarker as an efficacy marker in both G55-tumor-bearing mice in both tumor tissue and blood serum, either untreated or treated with TMZ, OKN-007 or TMZ +OKN-007.
Mice and Treatments. Animal studies were conducted in accordance to the OMRF IACUC (Institutional Animal Care and Use Committee) policies, which follow NIH guidelines. For the F98 rat glioma cell implantation model, F98 cells (10^5 in 10-μ1 volume) were intracerebrally implanted with a stereotaxic device (2 mm lateral and 2 mm anterior to the bregma, and at a 3 mm depth) in a total of 15 Fischer 344 rats (male 200-250 gm). The animals were divided into two groups once tumors reached 10-20 mm^3 in volume (as determined by MRI): OKN-007 treated (n=8) and untreated (UT) (n=7) groups. […] Once tumors reached 10-15 mm^3 (determined via MRI), mice were either treated daily with OKN-007 in the drinking water (150 mg/kg; 0.20% w/v for a 20 g mouse), or every 3 days with TMZ (30 mg/kg). […] Water bottles were weighed, and the amount of OKN-007 consumed per mouse was determined. […]

TGFβ1 = TGFβ1 protein levels (IHC, ELISA) in F98 gliomas; assay type: in vivo, rat
Procedure: Mice and Treatments. Animal studies were conducted in accordance to the OMRF IACUC (Institutional Animal Care and Use Committee) policies, which follow NIH guidelines. For the F98 rat glioma cell implantation model, F98 cells (10^5 in 10-μ1 volume) were intracerebrally implanted with a stereotaxic device (2 mm lateral and 2 mm anterior to the bregma, and at a 3 mm depth) in a total of 15 Fischer 344 rats (male 200-250 gm). The animals were divided into two groups once tumors reached 10-20 mm^3 in volume (as determined by MRI): OKN-007 treated (n=8) and untreated (UT) (n=7) groups. Rats were treated until tumors reached 200-250 mm^3 in volume or for a total of 4-6 weeks. For the G55 GBM cell implantation model, two-month-old male nude mice (Hsd:Athymic Nude-Foxnlnu mice; Harlan Inc., Indianapolis, IN) were implanted intracerebrally with human G55 xenograft cells (1×10^6) per mL suspended in 4 μL in cell culture media of 1% agarose solution. Once tumors reached 10-15 mm^3 (determined via MRI), mice were either treated daily with OKN-007 in the drinking water (150 mg/kg; 0.20% w/v for a 20 g mouse), or every 3 days with TMZ (30 mg/kg). OKN-007 was dissolved in water and made fresh every 2 days. Water bottles were weighed, and the amount of OKN-007 consumed per mouse was determined. […] The average intake of OKN-007 was approximately 140-150 mg/kg/day/mouse. […]

MPG = assay: RT-PCR gene-fold changes in human GBM cells; assay type: cell-based
Procedure: (§1) Quantification of mRNA by real-time quantitative RT-PCR for HIF-1a, MPG and MGMT. Total RNA from all cell lines with all treatments was purified with an RNeasy Mini Kit (Qiagen), and quantified by spectrophotometry (Nanodrop). cDNA was synthesized using SuperScript IV Reverse Transcriptase Kit (Invitrogen).
(§2) Target gene mRNA was amplified and measured by Bio-Rad CFX96™ Real Time System. Gene expression was determined using the SYBR Select Master Mix (Applied Biosystems). […] The reaction is characterized by the point during cycling when amplification of PCR products is first detected, rather than the amount of PCR product accumulated after a fixed number of cycles. The higher the starting quantity of the template, the earlier a significant increase in fluorescence is observed. The threshold cycle is defined as the fractional cycle number at which fluorescence passes a fixed threshold above the baseline. Fluorescence data were converted into cycle threshold measurements exported to Microsoft Excel. Glyceraldehyde-3-phosphatase dehydrogenase (GAPDH) mRNA expression levels were used as the quantitative internal control. For precise quantification, the mRNA expression level of each sample was normalized using the expression of the GAPDH gene.
(§3) All primers were synthesized by Integrated DNA Technologies. The primers used were: […]
(§4) were used to amplify 603-bp transcripts of MPG [9].

MGMT = assay: RT-PCR gene-fold changes in human GBM cells; assay type: cell-based
Procedure: as §1, §2, §3, §4

human G55 xenograft = assay: Orthotopic G55 human GBM xenograft in nude mice (survival, MRI tumor volume, perfusion rCBF); assay type: in vivo, mouse
Procedure: Mice and Treatments. Animal studies were conducted in accordance to the OMRF IACUC (Institutional Animal Care and Use Committee) policies, which follow NIH guidelines. Two-month-old male nude mice (Hsd:Athymic Nude-Foxnlnu mice; Harlan Inc., Indianapolis, Ind.) were implanted intra-cerebrally with human G55 xenograft cells (1×10^7) per mL suspended in 4 μL in cell culture media of 1% aragose solution. Once tumors reached 10-15 mm^3 (determined via MRI), mice were either treated every 3 days with OKN-007 (150 mg/kg; via drinking water continuously) or TMZ (30 mg/kg via gavage every 3 days). TMZ was dissolved in 5% DMSO and 5% solutol-15 in sterile saline. Mice were treated until the tumor reached 100-150 mm^3 or for a total of up to 60 days after tumors were detected by MRI (>5 mm^3).
MRI. MRI experiments were performed on a Bruker Bio-spec 7.0 Tesla/30-cm horizontal-bore magnet imaging system. […] T2-weighted imaging was obtained, and tumor volumes were calculated from MRI datasets.
Perfusion imaging. In order to assess microvascular alterations associated with tumor capillaries, the perfusion imaging method, arterial spin labeling (ASL), was used. Perfusion maps were obtained on a single axial slice of the brain located on the point of the rostro-caudal axis where the tumor has the largest cross-section. Five regions of interest (ROIs) were manually outlined around the tumor, and appropriate ROIs were also taken from the contralateral side of the brain for comparison purposes. To calculate the differences in rCBF values, tumor rCBF values were obtained at late (days 18-26 following intracerebral implantation of cells for untreated mice) and early (days 10-13 following cell implantation) tumor stages, and normalized to rCBF values in the contralateral brain region of corresponding animals.
Statistical analyses. Survival curves were analyzed using Kaplan-Meier curves. Tumor volumes, changes in normalized rCBF, and LBP levels were compared by two-way ANOVA with multiple comparisons. Data were represented as mean±SD, and P-values of either *0.05, **0.01, ***0.001, and ****0.0001 were considered statistically significant.
Mice and Treatments. Animal studies were conducted in accordance to the OMRF IACUC (Institutional Animal Care and Use Committee) policies, which follow NIH guidelines. […] Once tumors reached 10-15 mm^3 (determined via MRI), mice were either treated daily with OKN-007 in the drinking water (150 mg/kg; 0.20% w/v for a 20 g mouse), or every 3 days with TMZ (30 mg/kg). […] Water bottles were weighed, and the amount of OKN-007 consumed per mouse was determined. […]

CC(C)(C)[N+]([O-])=Cc1ccc(S(=O)(=O)O)cc1S(=O)(=O)O [OKN-007, 2,4-disulfonyl phenyl tert-butyl nitrone]
LBP levels in tumor tissues compared to untreated gliomas ([1]; F98 glioma bearing rats, p<0.0001): significant decrease in LBP levels | serum levels of LBP compared to untreated tumor-bearing rats ([1]; F98 glioma-bearing rats, p<0.001): significantly lower | TGFβ1 protein levels by immunohistochemistry compared to UT tumors (TGFβ1; F98 gliomas): substantially reduced | TGFβ1 protein expression by ELISA compared to UT tumors (TGFβ1; F98 tumor tissue lysates, p<0.001): significantly decreased | RT-PCR gene-fold change MPG (MPG; G55 cells (TMZ-resistant), UT 1.06): 4.52 fold | RT-PCR gene-fold change MPG (MPG; LN18 cells (TMZ-resistant), UT 1.00): 0.60 fold | RT-PCR gene-fold change MPG (MPG; LN229 cells (TMZ-sensitive), UT 1.10): 0.62 fold | RT-PCR gene-fold change MPG (MPG; T98 cells (TMZ-resistant), UT 1.10): 0.62 fold | RT-PCR gene-fold change MPG (MPG; U138 cells (TMZ-resistant), UT 1.13): 11.10 fold | RT-PCR gene-fold change MPG (MPG; U251 cells (TMZ-sensitive), UT 1.10): 0.81 fold | RT-PCR gene-fold change MGMT (MGMT; LN18 cells (TMZ-resistant), UT 1.06): 0.42 fold | RT-PCR gene-fold change MGMT (MGMT; T98 cells (TMZ-resistant), UT 1.00): 0.54 fold | RT-PCR gene-fold change MGMT (MGMT; U251 cells (TMZ-sensitive), UT 1.00): 1.22 fold | percent of treated mice alive 60 days following tumor detection (human G55 xenograft; G55 glioma-bearing nude mice, OKN-007 150 mg/kg in drinking water, TMZ 30 mg/kg gavage every 3 days, n=5): 20% | tumor volumes compared to UT mice (human G55 xenograft; MRI at 19-22 days following tumor detection, G55 glioma-bearing mice): significantly decreased tumor volumes | tumor volumes compared to UT mice (human G55 xenograft; last MRI time-point for each treatment group): no significant difference in tumor volumes | tumor perfusion rates compared to TMZ treatment (human G55 xenograft; perfusion MRI, no significant differences between treated groups): more normalized perfusion rates
